Assay results taken from paper PMC10436550, “Subacute toxicity evaluations of LPM3480392 in rats, a full µ-opioid receptor biased agonist” (Frontiers in Pharmacology, 2023).

Tested on: Sprague Dawley (SD) rats
Assay: Organ weight and ratios, 4-week subacute toxicity study
Type: in vivo, rat
Protocol: Complete gross necropsies were conducted on all surviving animals at the end of treatment (the day after the last dosing) and recovery periods. The following selected organs were weighed and evaluated in terms of organ/body or organ/brain weight ratios: brain, kidneys, adrenals, testes, ovaries, uterus, epididymides, thymus, spleen, heart and liver. Paired organs were weighed together. Organ-to-body weight ratio = Organ weight(g)/Body weight(g) × 100%, and Organ-to-brain weight ratio = Organ weight(g)/Brain weight(g) × 100%.

[1] = female rats, 0.6 mg/kg/day, End of dosing phase
[2] = female rats, 0.6 mg/kg/day, End of recovery phase
[3] = female rats, 1.2 mg/kg/day, End of dosing phase
[4] = female rats, 1.2 mg/kg/day, End of recovery phase
[5] = female rats, 2.4 mg/kg/day, End of dosing phase
[6] = female rats, 2.4 mg/kg/day, End of recovery phase
[7] = male rats, 0.6 mg/kg/day, End of dosing phase
[8] = male rats, 0.6 mg/kg/day, End of recovery phase

Compound: Fc1ccc([C@]2(CCNCc3cccc(Cl)c3)CCO[C@]3(CCOC3)C2)nc1 [LPM3480392]
- Organ weight, Brain [1]: 1.862 ± 0.102 g
- Organ weight, Kidney [1]: 1.501 ± 0.123 g
- Organ weight, Spleen [1]: 0.646 ± 0.159 g
- Organ weight, Thymus [1]: 0.402 ± 0.053 g
- Organ-to-body weight ratio, Brain [1]: 0.875 ± 0.063 %
- Organ-to-body weight ratio, Kidney [1]: 0.704 ± 0.037%
- Organ-to-body weight ratio, Spleen [1]: 0.301 ± 0.065%
- Organ-to-body weight ratio, Thymus [1]: 0.189 ± 0.028%
- Organ-to-brain weight ratio, Adrenal gland [1]: 3.21 ± 0.59%
- Organ-to-brain weight ratio, Kidney [1]: 80.71 ± 6.29%
- Organ-to-brain weight ratio, Spleen [1]: 34.73 ± 8.54%
- Organ-to-brain weight ratio, Thymus [1]: 21.61 ± 3.02%
- Terminal BW [1]: 213.5 ± 15.3 g
- Organ weight, Brain [2]: 2.018 ± 0.046 g
- Organ weight, Kidney [2]: 1.626 ± 0.142 g
- Organ weight, Spleen [2]: 0.530 ± 0.085 g
- Organ weight, Thymus [2]: 0.308 ± 0.055 g
- Organ-to-body weight ratio, Brain [2]: 0.804 ± 0.031%
- Organ-to-body weight ratio, Kidney [2]: 0.647 ± 0.043%
- Organ-to-body weight ratio, Spleen [2]: 0.210 ± 0.030%
- Organ-to-body weight ratio, Thymus [2]: 0.122 ± 0.019%
- Organ-to-brain weight ratio, Adrenal gland [2]: 2.91 ± 0.20%
- Organ-to-brain weight ratio, Kidney [2]: 80.51 ± 6.21%
- Organ-to-brain weight ratio, Spleen [2]: 26.23 ± 4.03%
- Organ-to-brain weight ratio, Thymus [2]: 15.21 ± 2.43%
- Terminal BW [2]: 251.2 ± 9.7 g
- Organ weight, Brain [3]: 1.916 ± 0.096 g
- Organ weight, Kidney [3]: 1.518 ± 0.127 g
- Organ weight, Spleen [3]: 0.637 ± 0.078 g
- Organ weight, Thymus [3]: 0.380 ± 0.046 g
- Organ-to-body weight ratio, Brain [3]: 0.881 ± 0.039 %
- Organ-to-body weight ratio, Kidney [3]: 0.697 ± 0.044%
- Organ-to-body weight ratio, Spleen [3]: 0.294 ± 0.042%
- Organ-to-body weight ratio, Thymus [3]: 0.175 ± 0.026%
- Organ-to-brain weight ratio, Adrenal gland [3]: 2.89 ± 0.37%
- Organ-to-brain weight ratio, Kidney [3]: 79.14 ± 3.61%
- Organ-to-brain weight ratio, Spleen [3]: 33.29 ± 3.96%
- Organ-to-brain weight ratio, Thymus [3]: 19.90 ± 2.88%
- Terminal BW [3]: 217.8 ± 15.0 g
- Organ weight, Brain [4]: 1.990 ± 0.086 g
- Organ weight, Kidney [4]: 1.567 ± 0.165 g
- Organ weight, Spleen [4]: 0.574 ± 0.056 g
- Organ weight, Thymus [4]: 0.297 ± 0.056 g
- Organ-to-body weight ratio, Brain [4]: 0.802 ± 0.031%
- Organ-to-body weight ratio, Kidney [4]: 0.630 ± 0.037%
- Organ-to-body weight ratio, Spleen [4]: 0.231 ± 0.016%
- Organ-to-body weight ratio, Thymus [4]: 0.120 ± 0.023%
- Organ-to-brain weight ratio, Adrenal gland [4]: 2.68 ± 0.38%
- Organ-to-brain weight ratio, Kidney [4]: 78.65 ± 6.18%
- Organ-to-brain weight ratio, Spleen [4]: 28.83 ± 2.34%
- Organ-to-brain weight ratio, Thymus [4]: 14.89 ± 2.48%
- Terminal BW [4]: 248.4 ± 12.5 g
- Organ weight, Brain [5]: 1.958 ± 0.105 g
- Organ weight, Kidney [5]: 1.549 ± 0.122 g
- Organ weight, Spleen [5]: 0.616 ± 0.144 g
- Organ weight, Thymus [5]: 0.339 ± 0.075 g
- Organ-to-body weight ratio, Brain [5]: 0.943 ± 0.055%
- Organ-to-body weight ratio, Kidney [5]: 0.746 ± 0.049%
- Organ-to-body weight ratio, Spleen [5]: 0.294 ± 0.049%
- Organ-to-body weight ratio, Thymus [5]: 0.162 ± 0.031%
- Organ-to-brain weight ratio, Adrenal gland [5]: 2.88 ± 0.24%
- Organ-to-brain weight ratio, Kidney [5]: 79.23 ± 6.43%
- Organ-to-brain weight ratio, Spleen [5]: 31.37 ± 6.57%
- Organ-to-brain weight ratio, Thymus [5]: 17.23 ± 3.33%
- Terminal BW [5]: 208.0 ± 14.6 g
- Organ weight, Brain [6]: 2.075 ± 0.093 g
- Organ weight, Kidney [6]: 1.554 ± 0.133 g
- Organ weight, Spleen [6]: 0.502 ± 0.064 g
- Organ weight, Thymus [6]: 0.331 ± 0.135 g
- Organ-to-body weight ratio, Brain [6]: 0.856 ± 0.093%
- Organ-to-body weight ratio, Kidney [6]: 0.637 ± 0.024%
- Organ-to-body weight ratio, Spleen [6]: 0.206 ± 0.027%
- Organ-to-body weight ratio, Thymus [6]: 0.135 ± 0.047%
- Organ-to-brain weight ratio, Adrenal gland [6]: 2.71 ± 0.42%
- Organ-to-brain weight ratio, Kidney [6]: 75.09 ± 8.25%
- Organ-to-brain weight ratio, Spleen [6]: 24.11 ± 2.01%
- Organ-to-brain weight ratio, Thymus [6]: 16.14 ± 7.16%
- Terminal BW [6]: 244.2 ± 24.2 g
- Organ weight, Adrenal gland [7]: 0.052 ± 0.011 g
- Organ weight, Brain [7]: 2.094 ± 0.050 g
- Organ weight, Epididymis [7]: 0.977 ± 0.089 g
- Organ weight, Heart [7]: 1.289 ± 0.102 g
- Organ weight, Liver [7]: 8.125 ± 0.587 g
- Organ weight, Spleen [7]: 0.741 ± 0.128 g
- Organ weight, Thymus [7]: 0.477 ± 0.062 g
- Organ-to-body weight ratio, Adrenal gland [7]: 0.016 ± 0.003%
- Organ-to-body weight ratio, Brain [7]: 0.650 ± 0.035%
- Organ-to-body weight ratio, Epididymis [7]: 0.303 ± 0.028%
- Organ-to-body weight ratio, Heart [7]: 0.399 ± 0.028 %
- Organ-to-body weight ratio, Liver [7]: 2.516 ± 0.108%
- Organ-to-body weight ratio, Spleen [7]: 0.229 ± 0.030%
- Organ-to-body weight ratio, Thymus [7]: 0.147 ± 0.016%
- Organ-to-brain weight ratio, Adrenal gland [7]: 2.50 ± 0.58%
- Organ-to-brain weight ratio, Epididymis [7]: 46.67 ± 4.12%
- Organ-to-brain weight ratio, Heart [7]: 61.61 ± 5.76%
- Organ-to-brain weight ratio, Liver [7]: 388.28 ± 30.51%
- Organ-to-brain weight ratio, Spleen [7]: 35.42 ± 6.22%
- Organ-to-brain weight ratio, Thymus [7]: 22.74 ± 2.77%
- Terminal BW [7]: 322.9 ± 16.9 g
- Organ weight, Adrenal gland [8]: 0.057 ± 0.008 g
- Organ weight, Brain [8]: 2.262 ± 0.071 g
- Organ weight, Epididymis [8]: 1.432 ± 0.140 g
